Measured values taken from PubChem BioAssay (NCI).
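Assay format: 96-well plates, 48-hour exposure. GI50 = concentration required for 50% inhibition of growth. TGI: concentration producing complete growth inhibition.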

Key:
Assay in all cases: NCI-60 cell line screen, 48 h
T-47D breast = system: T-47D breast
OVCAR-5 ovarian = system: OVCAR-5 ovarian
HOP-62 NSCLC = system: HOP-62 NSCLC
SK-MEL-5 melanoma = system: SK-MEL-5 melanoma
HS 578T breast = system: HS 578T breast
NCI-H522 lung = system: NCI-H522 lung
A498 renal = system: A498 renal
OVCAR-8 ovarian = system: OVCAR-8 ovarian
A549 NSCLC = system: A549 NSCLC
BT-549 breast = system: BT-549 breast

Row | SMILES | TGI (T-47D breast) [µM] | TGI (OVCAR-5 ovarian) [µM] | TGI (HOP-62 NSCLC) [µM] | TGI (SK-MEL-5 melanoma) [µM] | TGI (HS 578T breast) [µM] | TGI (NCI-H522 lung) [µM] | TGI (A498 renal) [µM] | TGI (OVCAR-8 ovarian) [µM] | TGI (A549 NSCLC) [µM] | GI50 (OVCAR-5 ovarian) [nM] | GI50 (HOP-62 NSCLC) [µM] | GI50 (SK-MEL-5 melanoma) [nM] | GI50 (BT-549 breast) [µM] | TGI (BT-549 breast) [µM] | GI50 (HS 578T breast) [nM] | GI50 (NCI-H522 lung) [nM] | GI50 (A498 renal) [µM] | GI50 (OVCAR-8 ovarian) [nM] | GI50 (A549 NSCLC) [nM] | GI50 (T-47D breast) [nM]
1 | COc1ccc(NC(=O)Oc2ccc3c(C)cc(=O)oc3c2)c(OC)c1 (tested in a mixture with another compound) | > 100 | > 100 | > 100 | > 100 | > 100 | > 100 | 86.1 | > 100 | > 100 | – | – | – | – | – | – | – | – | – | – | –
2 | COc1ccc(C(=O)C2CCC(C(=O)O)C2)cc1 (stereo unspecified) | – | > 100 | > 100 | > 100 | – | > 100 | > 100 | > 100 | > 100 | – | – | – | – | – | – | – | – | – | – | –
3 | CCOC(=O)C12CCCC1(O)N(NC(=O)OC)C(C)=C2C(=O)OC (stereo unspecified) | – | > 100 | > 100 | – | – | > 100 | > 100 | > 100 | > 100 | – | – | – | – | – | – | – | – | – | – | –
4 | CC1SC(c2ccccc2Cl)N(NC(=O)C(O)c2ccccc2)C1=O (stereo unspecified) | – | > 100 | > 100 | > 100 | > 100 | > 100 | > 100 | > 100 | > 100 | > 100000 | > 100 | 63900 | > 100 | > 100 | 85300 | 54400 | 67.8 | > 100000 | 52300 | –
5 | [N-]=[N+]=NCN1C(=O)C2C3C=CC(C2C1=O)C1C2C(=O)N(CN=[N+]=[N-])C(=O)C2C31 (stereo unspecified) | > 100 | – | > 100 | > 100 | > 100 | > 100 | – | > 100 | > 100 | – | – | – | – | – | – | – | – | – | – | –
6 | NC(=O)c1cc(N2CC2)c([N+](=O)[O-])cc1[N+](=O)[O-] | > 200 | > 200 | > 200 | > 200 | > 200 | > 200 | 200 | > 200 | > 200 | > 200000 | > 200 | – | – | – | – | > 200000 | – | > 200000 | – | –
7 | O=C1Nc2c(Cl)cc(Cl)cc2/C1=N/N=C/c1ccco1 | – | > 100 | > 100 | > 100 | > 100 | – | 57.7 | > 100 | > 100 | – | – | – | – | 60.6 | – | – | – | – | – | –
8 | COC(=O)CCC(=O)Nc1ccc(Cl)cc1C | – | > 100 | > 100 | > 100 | – | > 100 | > 79 | > 100 | > 100 | – | – | – | – | – | – | – | – | – | – | –
9 | COc1cnc2c(c1)C(=O)c1c-2n(CCCN2CCCC2)c(=O)c2cc([N+](=O)[O-])ccc12 | 12.8 | 1.52 | 1.24 | 0.322 | 23.2 | 3.8 | – | 5.85 | 1.15 | 163 | < 0.01 | 67.1 | 0.354 | 16 | 1910 | 60.7 | – | 92.9 | 46.3 | 17.9
10 | C(=N\Nc1ncc(-c2cc3cc4c(cc3o2)OCO4)s1)/c1ccco1 | 9.74 | 8.67 | 12.6 | 4.6 | 22.2 | 2.97 | – | > 100 | 6.87 | 2710 | 3.04 | 2070 | 3.43 | 15.2 | 2740 | 625 | – | 2800 | 1790 | 1270
